# Entries after “also recorded” stand apart in the source; their conditions may differ.
# Legend:
# [1] = system: EGFP+Ba/F3 BCR-ABLWT cells; assay: Survival extension in a BCR-ABL leukemia mouse model; type: in vivo, nude mice; conditions: 15 mM (249 mg/kg) FA-HP-β-CyD vs 150 mM (2086.5 mg/kg) HP-β-CyD, intraperitoneally twice a day for 20 days (FIG. 10)
# Method: The effect due to FA-HP-β-CyD on the extension of survival in a BCR-ABL leukemia mouse model was evaluated as follows.
# The FA-HP-β-CyD synthesized in Example 1 was used in this example.
# EGFP+Ba/F3 BCR-ABLWT cells (1×10^6 cells) were transplanted into 6-week-old nude mice. Three days after transplantation, 200 μL vehicle (n=10), 150 mM (2086.5 mg/kg) HP-β-CyD (n=10), 15 mM (249 mg/kg) FA-HP-β-CyD (n=10), or […] (200 mg/kg) imatinib (n=10) was injected intraperitoneally twice a day for 20 days. The survival time was monitored daily. The survival data were analyzed using a log-rank nonparametric test and are reported as Kaplan-Meier survival curves.
# (§1) Significant difference was determined as follows. That is, the data were analyzed using a two-sided Student's t-test without a comparison table. A value of P<0.05 was considered to indicate a significant difference.
# BV173 [2] = assay: Cellular uptake of TRITC-labelled CyD, confocal microscopy; type: cell-based; conditions: confocal microscopy (FIG. 6)
# Method: The cellular uptake of FA-HP-β-CyD was evaluated as follows.
# A leukemia cell line (BV173) was used in this example. The FA-HP-β-CyD synthesized in Example 1 was used.
# 10 mg HP-β-CyD or FA-HP-β-CyD and 1 mg of TRITC were dissolved in 400 μL of dimethyl sulfoxide (DMSO) with stirring for 24 hours and the solution was then gradually poured into acetone. A precipitate was obtained and was washed with water. This was freeze-dried to prepare TRITC-HP-β-CyD and TRITC-FA-HP-β-CyD.
# The cells were then cultured at a cell density of 4×10e5 per well on a 6-well plate and were incubated with […], TRITC-HP-β-CyD, FA-HP-β-CyD, or HP-βCyD at different concentrations. A Zeiss LSM880 confocal microscope was used to observe the cells. Imaris (Zeiss) fluorescent image analysis software was used for analysis.
# The Control refers to incubation at the same time as the other exposure groups, but without exposure to an agent. Cell localization was stained by DAPI and the cell membrane was stained with PlasMen Bright Green, and the cellular uptake of TRITC-FA-HP-β-CyD was evaluated using confocal microscopy.
# K562-IMR = assay: Cell proliferation inhibition, modified MTT assay (Cell Counting Kit-8); type: cell-based; conditions: incubation for 72 hours, average±SD of 3 independent experiments
# Method: (§2) The proliferation inhibitory action in leukemia cell lines was evaluated using a modified dimethyl-thiazole-diphenyl-tetrazolium (MTT) assay as follows.
# (§3) The hepatocyte line and leukemia cell lines (K562, BV173, Ba/F3 p190, Ba/F3 p210, MYL-R, K562-IMR, and KBM5-STI) were used in this example. The FA-HP-β-CyD synthesized in Example 1 was used.
# (§4) The cell viability was evaluated using the trypan blue dye exclusion method. Cell proliferation was evaluated using a Cell Counting Kit-8 (Dojindo, Japan), which is an MTT assay. 2×10^4 of each cell was seeded with 100 μL RPMI1640 medium (Sigma-Aldrich, USA) per well to a flatbottom 96-well plate (Greiner Labortechnik, Hamburg, Germany), and incubation for 72 hours was carried out with exposure to HP-β-CyD and FA-HP-β-CyD at different concentrations (0 mM (control: CT), 0.05 mM, 0.1 mM, 0.25 mM, 0.5 mM, and 1 mM).
# KBM5-STI = assay: as above; type: cell-based; conditions: incubation for 72 hours, average±SD of 3 independent experiments
# Method: as §2, §3, §4
# MYL-R = assay: as above; type: cell-based; conditions: incubation for 72 hours, average±SD of 3 independent experiments
# Method: as §2, §3, §4
# Ba/F3 P210 = assay: as above; type: cell-based; conditions: Ba/F3 P210, incubation for 72 hours, average±SD of 3 independent experiments
# Method: as §2, §3, §4
# K562 [3] = assay: as above; type: cell-based
# Method: as §2, §3, §4
# Ba/F3 P190 = assay: as above; type: cell-based
# Method: as §2, §3, §4
# BV173 [4] = assay: as above; type: cell-based
# Method: as §2, §3, §4
# hepatocyte = assay: as above; type: cell-based; conditions: hepatocyte line, incubation for 72 hours, average±SD of 3 independent experiments
# Method: as §2, §3, §4
# K562 [5] = assay: Effect of autophagy inhibition on the cell proliferation inhibitory effect; type: cell-based; conditions: 5 mM FA-HP-β-CyD or 15 mM HP-β-CyD, chloroquine, bafilomycin A1 or LY294002 (FIG. 8)
# Method: (§5) The effect of autophagy inhibition on the cell proliferation inhibitory effect was evaluated as follows.
# (§6) Leukemia cell lines (K562 and BV173) were used in this example. The FA-HP-β-CyD synthesized in Example 1 was used.
# (§7) 2×10^5 of each cell with 100 μL RPMI1640 medium (Sigma-Aldrich, USA) was seeded per well to a flatbottom 96-well plate (Greiner Labortechnik, Hamburg, Germany), and treatment was carried out for 2 hours at 37° C. with 5 mM FA-HP-β-CyD and 15 mM HP-β-CyD. Pretreatment was then carried out for 24 hours with the autophagy inhibitors chloroquine (20 μM) (FUJIFILM Wako Pure Chemical Corporation), bafilomycin A1 (1 nM) (Funakoshi), or LY294002 (50 μM) (FUJIFILM Wako Pure Chemical Corporation). Cell proliferation was then evaluated using a Cell Counting Kit-8 (Dojindo, Japan), which is a modified dimethyl-thiazole-diphenyl-tetrazolium (MTT) assay.
# (§8) Here, the “CT” in FIG. 8 was evaluated as follows. Thus, 2×10^5 of each cell with 100 μL RPMI1640 medium was seeded per well to a flatbottom 96-well plate and culture was carried out for 2 hours+24 hours as in the exposure groups, but without exposure to the agent or autophagy inhibitor, and this was used as the CT. This CT was compared with the exposure groups.
# as §1
# BV173 [6] = assay: as above; type: cell-based; conditions: 5 mM FA-HP-β-CyD or 15 mM HP-β-CyD, chloroquine, bafilomycin A1 or LY294002 (FIG. 8)
# Method: as §5, §6, §7, §8, §1
substance,measurement,setting,value
folic acid-appended hydroxypropyl-β-cyclodextrin [FA-HP-β-CyD],survival time extension,[1],same survival time extension at one-tenth the amount of HP-β-CyD; also recorded: significant extension of the survival time
same,cellular uptake,BV173 [2],incorporated in large amounts into the cell
same,IC50,K562-IMR,700 ± 55 µM
same,IC50,KBM5-STI,800 ± 120 µM
same,IC50,MYL-R,930 ± 110 µM
same,IC50,Ba/F3 P210,960 ± 17 µM
same,cell proliferation,"K562 [3]; K562, 0.05-1 mM, 72 hours (FIG. 2)",inhibited in a dose-dependent manner
same,IC50,"K562 [3]; K562, incubation for 72 hours, average±SD of 3 independent experiments",690 ± 190 µM
same,IC50,"Ba/F3 P190; Ba/F3 P190, incubation for 72 hours, average±SD of 3 independent experiments",910 ± 160 µM
same,cell proliferation,"Ba/F3 P190; Ba/F3 p190, 0.05-1 mM, 72 hours (FIG. 2)",inhibited in a dose-dependent manner
same,cell proliferation,"BV173 [4]; BV173, 0.05-1 mM, 72 hours (FIG. 2)",inhibited in a dose-dependent manner
same,IC50,"BV173 [4]; BV173, incubation for 72 hours, average±SD of 3 independent experiments",170 ± 64 µM
same,IC50,hepatocyte,20100 ± 4500 µM
same,cell proliferation inhibitory capability on addition of an autophagy inhibitor,K562 [5],reduced by the addition of an autophagy inhibitor
same,cell proliferation inhibitory capability on addition of an autophagy inhibitor,BV173 [6],reduced by the addition of an autophagy inhibitor
